The values below come from patent US6906193B2, “N-type calcium channel antagonists for the treatment of pain” (AstraZeneca AB, priority 2000, dated 2005).

In general, IC50 refers to the concentration needed to halve the response being measured.

Where two headings read alike, the source gives them in different places. Where only a bound is given, the exact number is not on record here.

Experiment [1] addresses N-type calcium channel (Homo sapiens, UniProt Q00975). The experiment is described as follows: N-channel FLIPR assay. The class given is cell-based.
Experiment [2] relates to formalin-induced nocifensive behaviours. The experiment is described as follows: Formalin test. The class given is in vivo, rats. As to conditions: Rattus norvegicus, read-out: IPT (Formalin). The protocol:
The Formalin test assesses the inhibitory effects of orally administered N-type calcium channel antagonists on formalin-induced nocifensive behaviours in rats. The formalin test is a well established pain test (Dubuisson and Dennis, 1977; Wheeler-Aceto et al., 1990; Coderre et al., 1993). This test consists of two distinct phases of formalin-induced behaviour. The first phase response, occurring between 0 to 5 minutes, is caused by acute nociception to the noxious chemical (formalin) injected into the paw. This is followed by a quiescent period of between 5 to 15 min post injection. A second phase response, occurring after 15 minutes and lasting up to 60 minutes, is caused by sensitisation of the central neurons in the dorsal horn. Central sensitisation augments the noxious afferent input and a stronger pain barrage is transmitted into the brain. Inhibition of the second phase response is indicative of a central mechanism of drug action.
The procedure for the formalin test is as follows: male rats are placed in a plexiglass chamber and observed for 30-45 min. to observe their baseline activity. Multiple groups of animals are pretreated with either vehicle or different doses of a test compound. Animals are dosed with the drug of interest either 40 min., if by the intraperitoneal route, or 90 min., if by the oral route, prior to injection of formalin into a hind paw (under the dorsal skin; 0.05 mL of sterile 5% formalin). The number of paw flinches and licks during first phase (0-5 min.) and second phase (20-35 min.) are scored and recorded. Flinch and lick responses are calculated as percentage of inhibition compared with the mean score of a saline control group. Drug potencies are expressed as the dose which causes 50% of the maximum inhibitory effect (“ID50”). Student t-tests are used for statistical analysis to determine the significance of drug effects. Compounds are considered active based on their ability to inhibit the flinch response.

Experiment [3] concerns L-type calcium channel. As to the kind of experiment: L-channel FLIPR assay. The class given is cell-based, human. As to conditions: 5-point concentration-response curves; SK-N-SH cells.
Experimental: An immortalized cell line, SK-N-SH, derived from human neuroblastoma cells (ATCC product # HTB-11) was used for all experiments. Cells were grown in T75 flasks containing Eagle's minimum essential medium (MEM) w/Earle's salts, with 0.1 mM non-essential amino acids, 1.0 mM Na pyruvate and 10% fetal bovine serum (FBS; Cat. # SLM-034-B, Specialty Media). Cells were grown to 100% confluency (by visual microscopic estimation) before sub-culture. Cells were sub-cultured at a ratio of 1:3 by first rinsing with 3 mL PBS, replacing the PBS with PBS containing 0.25% trypsin until the cells detached from the surface. 1 mL of the resulting suspension was then added to a new flask containing 10 mL fresh media. Cells were then incubated (37° C., 5% CO2), and media was exchanged about 3 days after subculturing.
Cells used for experiments were at the 100% confluency growth stage. Each flask provided enough cells for three 96-well plates. […]
Maximum signal (L-channel+non-specific): 12 wells received 20 μL buffer addition only (no nitrendipine) in the first solution addition sequence to define the maximal K^+-evoked Ca^2+ increase mediated by L-channels+non-specific (non-L-channel mediated fluorescence increase). The coefficient of variation amongst these wells for the K^+-evoked peak increase in fluorescence units was typically less than 12%. […]
Experiment [4] has as its system pain. The following applies: in vivo; cited from earlier work.

Sequence of N-type calcium channel (Q00975 whole entry): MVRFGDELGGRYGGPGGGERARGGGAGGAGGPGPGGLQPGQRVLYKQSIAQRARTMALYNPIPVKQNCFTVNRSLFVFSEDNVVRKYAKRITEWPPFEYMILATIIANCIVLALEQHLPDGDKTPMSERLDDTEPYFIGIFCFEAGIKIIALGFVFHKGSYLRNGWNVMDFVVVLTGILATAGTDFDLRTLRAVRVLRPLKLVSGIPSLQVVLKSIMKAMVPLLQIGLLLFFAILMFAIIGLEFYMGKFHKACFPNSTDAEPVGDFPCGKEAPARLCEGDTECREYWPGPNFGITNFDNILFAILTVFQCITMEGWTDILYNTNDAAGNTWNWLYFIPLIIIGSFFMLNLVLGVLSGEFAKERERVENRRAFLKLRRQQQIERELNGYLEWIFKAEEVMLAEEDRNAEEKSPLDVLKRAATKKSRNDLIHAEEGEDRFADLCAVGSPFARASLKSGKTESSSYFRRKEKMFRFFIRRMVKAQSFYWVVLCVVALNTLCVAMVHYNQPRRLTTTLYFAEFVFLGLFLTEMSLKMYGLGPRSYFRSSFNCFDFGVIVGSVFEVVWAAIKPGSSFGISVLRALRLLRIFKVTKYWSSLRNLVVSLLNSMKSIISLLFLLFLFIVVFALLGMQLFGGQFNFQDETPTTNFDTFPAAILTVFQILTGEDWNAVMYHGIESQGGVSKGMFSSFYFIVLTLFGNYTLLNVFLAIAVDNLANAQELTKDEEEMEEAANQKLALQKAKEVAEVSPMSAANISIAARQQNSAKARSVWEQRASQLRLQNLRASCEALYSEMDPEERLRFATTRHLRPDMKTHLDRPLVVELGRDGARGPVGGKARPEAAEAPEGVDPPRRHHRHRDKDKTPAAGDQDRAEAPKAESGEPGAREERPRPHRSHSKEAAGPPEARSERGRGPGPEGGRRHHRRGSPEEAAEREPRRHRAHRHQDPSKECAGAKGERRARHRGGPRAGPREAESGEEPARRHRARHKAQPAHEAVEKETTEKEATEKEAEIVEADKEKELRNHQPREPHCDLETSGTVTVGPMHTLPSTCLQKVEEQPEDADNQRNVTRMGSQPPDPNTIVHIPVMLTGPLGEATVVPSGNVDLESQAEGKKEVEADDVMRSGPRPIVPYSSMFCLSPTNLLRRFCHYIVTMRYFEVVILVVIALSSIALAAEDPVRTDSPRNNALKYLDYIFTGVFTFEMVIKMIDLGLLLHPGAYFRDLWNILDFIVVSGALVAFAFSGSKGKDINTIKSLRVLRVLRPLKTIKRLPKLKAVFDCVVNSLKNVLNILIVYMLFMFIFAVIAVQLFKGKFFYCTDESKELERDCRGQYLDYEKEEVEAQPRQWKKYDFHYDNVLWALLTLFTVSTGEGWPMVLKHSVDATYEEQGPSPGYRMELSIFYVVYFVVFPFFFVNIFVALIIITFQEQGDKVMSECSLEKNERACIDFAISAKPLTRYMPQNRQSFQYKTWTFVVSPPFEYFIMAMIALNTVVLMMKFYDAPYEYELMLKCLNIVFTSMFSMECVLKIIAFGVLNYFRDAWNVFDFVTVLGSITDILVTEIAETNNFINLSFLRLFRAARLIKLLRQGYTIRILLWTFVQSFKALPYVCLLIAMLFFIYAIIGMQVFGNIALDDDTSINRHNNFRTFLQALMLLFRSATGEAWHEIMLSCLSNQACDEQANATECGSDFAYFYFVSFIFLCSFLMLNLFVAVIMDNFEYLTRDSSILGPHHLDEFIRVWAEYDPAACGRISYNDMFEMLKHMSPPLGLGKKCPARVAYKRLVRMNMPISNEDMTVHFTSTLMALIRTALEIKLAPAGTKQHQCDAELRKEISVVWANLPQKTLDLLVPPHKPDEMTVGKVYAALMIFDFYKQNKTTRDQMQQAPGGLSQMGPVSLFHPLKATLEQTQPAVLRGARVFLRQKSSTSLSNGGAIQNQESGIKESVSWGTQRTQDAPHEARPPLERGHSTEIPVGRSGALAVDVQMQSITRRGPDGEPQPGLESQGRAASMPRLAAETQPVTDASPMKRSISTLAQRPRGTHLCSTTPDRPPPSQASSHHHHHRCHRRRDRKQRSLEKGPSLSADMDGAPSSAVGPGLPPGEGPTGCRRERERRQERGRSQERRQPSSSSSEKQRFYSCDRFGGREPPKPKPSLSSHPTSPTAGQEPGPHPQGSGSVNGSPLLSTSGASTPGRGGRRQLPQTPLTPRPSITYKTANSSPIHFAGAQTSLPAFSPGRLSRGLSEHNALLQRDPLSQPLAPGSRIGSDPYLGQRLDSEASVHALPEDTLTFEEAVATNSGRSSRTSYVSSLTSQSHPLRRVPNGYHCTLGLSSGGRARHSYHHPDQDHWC
Sequence of N-type calcium channel (P54289 25-956 partner limits assumed): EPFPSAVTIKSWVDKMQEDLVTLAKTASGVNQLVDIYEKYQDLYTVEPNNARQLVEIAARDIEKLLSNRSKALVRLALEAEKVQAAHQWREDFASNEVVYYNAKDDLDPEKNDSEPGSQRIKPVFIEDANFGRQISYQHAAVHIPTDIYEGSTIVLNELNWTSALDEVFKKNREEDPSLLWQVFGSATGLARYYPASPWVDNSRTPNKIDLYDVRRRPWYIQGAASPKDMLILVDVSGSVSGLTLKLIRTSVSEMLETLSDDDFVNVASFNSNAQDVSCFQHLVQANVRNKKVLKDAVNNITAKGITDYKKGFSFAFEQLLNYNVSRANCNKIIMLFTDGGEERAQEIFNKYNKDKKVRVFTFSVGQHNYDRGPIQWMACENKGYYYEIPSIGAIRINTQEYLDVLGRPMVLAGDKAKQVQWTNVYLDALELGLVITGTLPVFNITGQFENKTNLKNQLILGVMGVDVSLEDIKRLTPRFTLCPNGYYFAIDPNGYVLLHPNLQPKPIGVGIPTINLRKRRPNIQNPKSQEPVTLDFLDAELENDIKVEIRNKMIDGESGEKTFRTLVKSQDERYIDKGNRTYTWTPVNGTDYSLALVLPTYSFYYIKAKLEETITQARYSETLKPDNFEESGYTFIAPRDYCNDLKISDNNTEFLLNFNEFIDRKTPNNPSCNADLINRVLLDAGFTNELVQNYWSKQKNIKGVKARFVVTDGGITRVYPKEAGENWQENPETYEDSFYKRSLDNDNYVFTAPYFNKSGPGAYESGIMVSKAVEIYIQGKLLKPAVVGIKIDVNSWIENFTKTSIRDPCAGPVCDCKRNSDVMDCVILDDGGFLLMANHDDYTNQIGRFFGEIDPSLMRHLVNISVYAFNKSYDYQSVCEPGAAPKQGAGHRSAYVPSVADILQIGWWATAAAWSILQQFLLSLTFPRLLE
Sequence of N-type calcium channel (P54289 957-1103 partner limits assumed): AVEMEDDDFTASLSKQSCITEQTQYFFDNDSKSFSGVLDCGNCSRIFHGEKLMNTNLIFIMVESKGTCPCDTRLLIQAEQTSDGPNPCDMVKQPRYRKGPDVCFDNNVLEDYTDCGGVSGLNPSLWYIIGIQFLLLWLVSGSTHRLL
Sequence of N-type calcium channel (Q02641 whole entry partner): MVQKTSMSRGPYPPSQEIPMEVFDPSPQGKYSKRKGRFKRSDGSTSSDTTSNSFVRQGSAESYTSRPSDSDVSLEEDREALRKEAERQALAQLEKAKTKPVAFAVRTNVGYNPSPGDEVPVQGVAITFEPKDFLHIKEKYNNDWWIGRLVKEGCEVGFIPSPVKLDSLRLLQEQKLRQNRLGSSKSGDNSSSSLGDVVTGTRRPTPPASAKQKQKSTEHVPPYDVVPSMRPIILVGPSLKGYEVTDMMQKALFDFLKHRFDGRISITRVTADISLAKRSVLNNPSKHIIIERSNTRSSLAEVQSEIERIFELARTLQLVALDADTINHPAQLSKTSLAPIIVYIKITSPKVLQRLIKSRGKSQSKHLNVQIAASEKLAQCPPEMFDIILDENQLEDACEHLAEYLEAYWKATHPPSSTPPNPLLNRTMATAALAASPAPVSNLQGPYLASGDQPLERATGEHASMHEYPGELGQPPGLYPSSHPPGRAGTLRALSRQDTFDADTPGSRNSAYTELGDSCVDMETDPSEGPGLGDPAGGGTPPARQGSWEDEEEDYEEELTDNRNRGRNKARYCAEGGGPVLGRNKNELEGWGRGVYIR

Take `COc1ccc(-c2cc(C(=O)O)c3ccccc3n2)cc1` [Example 1, 2-(4-methoxyphenyl)-4-quinolinecarboxylic acid]: the IC50 in experiment [1] is greater than 10 µM.

In the case of `O=C(O)c1cc(-c2ccc(Cl)cc2)nc2ccccc12` [Example 2, 2-(4-chlorophenyl)-4-quinolinecarboxylic acid], the IC50 in experiment [1] was greater than 10 µM.

For the compound `Nc1ccc2nc(-c3ccccc3)cc(N)c2c1` [Example 3, 2-phenyl-4,6-quinolinediamine], the inhibition in vivo at 30 mg/kg was 45% in experiment [2] (ip, 30 mg/kg, i.p., rats) and 28% in experiment [2] (po, 30 mg/kg, p.o., rats). For the same compound, the concentration for half-maximal inhibition (IC50) in experiment [1] was 3.5 µM.

On to `COc1cccc2c(C(=O)O)cc(-c3ccccc3)nc12` [Example 4, 8-methoxy-2-phenyl-4-quinolinecarboxylic acid], for which, in experiment [1], the IC50 was greater than 10 µM.

For `COc1ccc(-c2cc(N)c3ccccc3n2)cc1` [Example 5, 2-(4-methoxyphenyl)-4-quinolinamine], the IC50 in experiment [1] was found to be 4.8 µM.

As for `Nc1cc(-c2ccccc2)nc2ccccc12` [Example 6, 2-phenyl-4-quinolinamine], the inhibition in vivo at 30 mg/kg in experiment [2] (ip, 30 mg/kg, i.p., rats) worked out at 88%. In experiment [1], the half-maximal inhibitory concentration (IC50) came to 4.4 µM.

For the compound `Cc1ccc(-c2cc(C(=O)O)c3ccccc3n2)cc1` [Example 7, 2-(4-methylphenyl)-4-quinolinecarboxylic acid], the half-maximal inhibitory concentration (IC50) in experiment [1] is greater than 10 µM.

Regarding `O=C(O)c1cc(-c2ccc(F)cc2)nc2ccccc12` [Example 8, 2-(4-fluorophenyl)-4-quinolinecarboxylic acid], the IC50 in experiment [1] is greater than 10 µM.

`Nc1cc(-c2cccc(F)c2)nc2ccccc12` [Example 9, 2-(3-fluorophenyl)-4-quinolinamine]: the inhibition in vivo at 30 mg/kg in experiment [2] (ip, 30 mg/kg, i.p., rats) amounted to 90%; in experiment [2] (po, 30 mg/kg, p.o., rats) it was 41%. In addition, the half-maximal inhibitory concentration (IC50) in experiment [1] came to 2.1 µM.

With `CNc1cc(-c2cccc(F)c2)nc2ccccc12` [Example 10, 2-(3-fluorophenyl)-N-methyl-4-quinolinamine], the inhibition in vivo at 30 mg/kg in experiment [2] (ip, 30 mg/kg, i.p., rats) came to 77%; in experiment [2] (po, 30 mg/kg, p.o., rats) it was 46%. Also, the IC50 in experiment [1] was found to be 1.6 µM.

Consider `CN(C)c1cc(-c2cccc(F)c2)nc2ccccc12` [Example 11, 2-(3-fluorophenyl)-N,N-dimethyl-4-quinolinamine], for which the inhibition in vivo at 30 mg/kg in experiment [2] (ip, 30 mg/kg, i.p., rats) was found to be 64%. Further, the IC50 in experiment [1] was found to be 3 µM.

Turning to `CC(=O)Nc1cc(/C=C/c2ccccc2)nc2ccccc12` [Example 12, N-{2-[(E)-2-phenylethenyl]-4-quinolinyl}acetamide], in experiment [1], the IC50 was determined as 5 µM.

As to `Nc1cc(/C=C/c2ccccc2)nc2ccccc12` [Example 13, 2-[(E)-2-phenylethenyl]-4-quinolinamine], the IC50 in experiment [1] came out at 1.4 µM.

In the case of `Nc1cc(-c2cccs2)nc2ccccc12` [Example 14, 2-(2-thienyl)-4-quinolinamine], in experiment [2] (ip, 30 mg/kg, i.p., rats), the inhibition in vivo at 30 mg/kg is 25%. Besides, the IC50 in experiment [1] is 5.4 µM.

Take `Cc1c(-c2ccccc2)nc2ccccc2c1C(=O)O` [Example 15, 3-methyl-2-phenyl-4-quinolinecarboxylic acid]: the concentration for half-maximal inhibition (IC50) in experiment [1] is greater than 10 µM.

Turning to `Cc1c(-c2ccccc2)nc2ccccc2c1N` [Example 16, 3-methyl-2-phenyl-4-quinolinamine], the inhibition in vivo at 30 mg/kg in experiment [2] (ip) amounted to 91%; in experiment [2] (po), 11%. Besides, the IC50 in experiment [1] came to 3.6 µM.

Regarding `CC(=O)Nc1cc(/C=C/c2cccc(F)c2)nc2ccccc12` [Example 17, N-{2-[(E)-2-(3-fluorophenyl)ethenyl]-4-quinolinyl}acetamide], the IC50 in experiment [1] amounted to 6.4 µM.

Take `Nc1cc(/C=C/c2cccc(F)c2)nc2ccccc12` [Example 18, 2-[(E)-2-(3-fluorophenyl)ethenyl]-4-quinolinamine]: the inhibition in vivo at 30 mg/kg in experiment [2] (ip, 30 mg/kg, i.p., rats) came to 19%. For the same compound, the IC50 in experiment [1] is 4.3 µM.

In the case of `Cc1cc(C)c2c(N)cc(-c3ccccc3)nc2c1` [Example 19, 5,7-dimethyl-2-phenyl-4-quinolinamine], the IC50 in experiment [1] came out at 1.5 µM.

On to `Cc1cccc2c(N)cc(-c3ccccc3)nc12` [Example 20, 8-methyl-2-phenyl-4-quinolinamine], for which, in experiment [1], the half-maximal inhibitory concentration (IC50) came out at 3.1 µM.

On to `COc1ccc2nc(-c3ccccc3)cc(C(=O)O)c2c1` [Example 21, 6-methoxy-2-phenyl-4-quinolinecarboxylic acid], for which the IC50 in experiment [1] is greater than 10 µM.

Consider `COc1ccc2nc(-c3ccccc3)cc(N)c2c1` [Example 22, 6-methoxy-2-phenyl-4-quinolinamine], for which the inhibition in vivo at 30 mg/kg in experiment [2] (ip, 30 mg/kg, i.p., rats) turned out to be 16%. Moreover, the IC50 in experiment [1] is roughly 3 µM.

Take `CCc1c(-c2ccccc2)nc2ccccc2c1C(=O)O` [Example 23, 3-ethyl-2-phenyl-4-quinolinecarboxylic acid]: the IC50 in experiment [1] is greater than 10 µM.

Consider `Nc1ccc2nc(/C=C/c3ccccc3)cc(N)c2c1` [Example 24, 2-[(E)-2-phenylethenyl]-4,6-quinolinediamine], for which the 50% inhibitory concentration (IC50) in experiment [1] is 5.4 µM.

Turning to `Nc1ccc2nc(/C=C/c3cccc(F)c3)cc(N)c2c1` [Example 25, 2-[(E)-2-(3-fluorophenyl)ethenyl]-4,6-quinolinediamine], the concentration for half-maximal inhibition (IC50) in experiment [1] came to 3.8 µM.

Regarding `COc1cccc2c(N)cc(-c3ccccc3)nc12` [Example 26, 8-methoxy-2-phenyl-4-quinolinamine], the IC50 in experiment [1] was determined as 5 µM.

Regarding `Nc1c2c(nc3ccccc13)-c1ccccc1CC2` [Example 27, 5,6-dihydrobenzo[c]acridin-7-amine], the inhibition in vivo at 30 mg/kg in experiment [2] (ip, 30 mg/kg, i.p., rats) came to 50%. Also, the IC50 in experiment [1] came out at 1.1 µM.

Turning to `O=C(O)c1cc(-c2ccccc2F)nc2ccccc12` [Example 28, 2-(2-fluorophenyl)-4-quinolinecarboxylic acid], the concentration for half-maximal inhibition (IC50) in experiment [1] was greater than 10 µM.

With `CCc1c(-c2ccccc2)nc2ccccc2c1N` [Example 29, 3-ethyl-2-phenyl-4-quinolinamine], the half-inhibitory concentration (IC50) in experiment [1] worked out at 1.2 µM.

In the case of `Nc1cc(-c2ccc(F)cc2)nc2ccccc12` [Example 30, 2-(4-fluorophenyl)-4-quinolinamine], in experiment [1], the IC50 came out at 3.4 µM.

Consider `Nc1cc(-c2ccccc2F)nc2ccccc12` [Example 31, 2-(2-fluorophenyl)-4-quinolinamine], for which the concentration for half-maximal inhibition (IC50) in experiment [1] was 8 µM.

In the case of `Cc1ccc(-c2cc(N)c3ccccc3n2)cc1` [Example 32, 2-(4-methylphenyl)-4-quinolinamine], in experiment [1], the IC50 was 3.1 µM.

On to `Cc1cccc(-c2cc(C(=O)O)c3ccccc3n2)c1` [Example 33, 2-(3-methylphenyl)-4-quinolinecarboxylic acid], for which, in experiment [1], the half-inhibitory concentration (IC50) was greater than 10 µM.

Take `Nc1c2c(nc3ccccc13)-c1ccccc1CCC2` [Example 34, 6,7-dihydro-5H-benzo[6,7]cyclohepta[1,2-b]quinolin-8-amine]: the IC50 in experiment [1] turned out to be 0.9 µM.

On to `CC(C)(C)c1cc(N)c2ccccc2n1` [Example 35, 2-tert-butyl-4-quinolinamine], for which, in experiment [1], the IC50 was greater than 10 µM.

Take `Nc1cc(-c2ccc(Cl)cc2)nc2ccccc12` [Example 36, 2-(4-chlorophenyl)-4-quinolinamine]: in experiment [1], the IC50 came to 5.5 µM.

As to `Cc1cccc(-c2cc(N)c3ccccc3n2)c1` [Example 37, 2-(3-methylphenyl)-4-quinolinamine], the inhibition in vivo at 30 mg/kg was 47% in experiment [2] (ip, 30 mg/kg, i.p., rats) and 13% in experiment [2] (po, 30 mg/kg, p.o., rats). The IC50 in experiment [1] is 1.2 µM.

As for `CCOC(=O)C1=C(C)NC(C)=C(C(=O)OC)C1c1cccc([N+](=O)[O-])c1` (stereo not shown) [nitrendipine], the IC50 in experiment [3] is 0.03 µM.

Consider conotoxin MVIIA, for which the “success rate for the treatment of pain” value in experiment [4] is roughly 85%.
